Measurements reported in patent publication US20250144067A1, “PERSONALIZED STARVATION THERAPY FOR CANCER” (Faeth Therapeutics, Inc., priority 2021, published 2025).
Where a name gives a salt, the structure may show the parent alone. Read-outs that look alike come from different tables or passages of the source.

How the values were obtained:
[1] = tested on: NCI-H292 lung cancer cells; experiment: FDA drug screening, complete media vs cholesterol-free media with simvastatin (TABLE 2); type: cell-based, human
[2] = tested on: NCI-H292 lung cancer cells; experiment: FDA drug screening, complete media vs cholesterol-free media without statin (TABLE 1); type: cell-based, human
[3] = NCI-H292 cells, drug in cholesterol-free media with simvastatin 0.04 μM
[4] = NCI-H292 cells, drug in complete media
[5] = complete media vs cholesterol-free media + simvastatin (0.04 μM), >0 enhanced anti-cancer activity, about 0 neutral, <0 antagonist
[6] = NCI-H292 cells, cholesterol-free media without statin, FDA drug library screen
[7] = NCI-H292 cells, complete media, FDA drug library screen
[8] = complete vs cholesterol-free media, >0 enhanced anti-cancer activity, about 0 neutral, <0 antagonist
[9] = NCI-H292 cells, cholesterol-free media with simvastatin 0.04 μM, FDA drug library screen (TABLE 2)
[10] = NCI-H292 cells, complete media, FDA drug library screen (TABLE 2)
[11] = complete media minus cholesterol-free media + simvastatin (0.04 μM), >0 enhanced anti-cancer activity, about 0 neutral, <0 antagonist
[12] = Complete minus Cholesterol-free, greater than 0 enhanced anti-cancer activity, about 0 neutral, below 0 antagonist
[13] = NCI-H292 cells, FDA drug library screen, cholesterol-free media without statin
[14] = NCI-H292 cells, FDA drug library screen, complete media
[15] = NCI-H292 cells, FDA drug library screen, cholesterol-free media with simvastatin 0.04 μM
[16] = complete media minus cholesterol-free media + simvastatin, >0 enhanced anti-cancer activity, about 0 neutral, <0 antagonist
[17] = Complete minus Cholesterol-free, >0 enhanced anti-cancer activity, about 0 neutral, <0 antagonist
[18] = NCI-H292 cells, FDA library drug in cholesterol-free media with simvastatin 0.04 μM
[19] = NCI-H292 cells, FDA library drug in complete media
[20] = NCI-H292 cells, cholesterol-free media without statin
[21] = NCI-H292 cells, cholesterol-free media with simvastatin 0.04 μM, cell growth value in FDA drug screen
[22] = NCI-H292 cells, complete media, cell growth value in FDA drug screen
[23] = Complete minus Cholesterol-free, greater than 0 enhanced anti-cancer activity, about 0 neutral, below 0 antagonists
[24] = NCI-H292 cells in cholesterol-free media without statin
[25] = NCI-H292 cells in complete media
[26] = complete vs cholesterol-free media, greater than 0 enhanced anti-cancer activity, about 0 neutral, below 0 antagonists

O=C1NCC2(CCN(CCc3ccccc3)CC2)O1 [Fenspiride (Hydrochloride)]
Cholesterol-free media + simvastatin (0.04 μM) [1, 3]: 1.105
Complete Media [1, 4]: 0.9138
Difference [1, 5]: −0.19
Cholesterol-free [2, 6]: 0.597
Complete [2, 7]: 0.752
Difference [2, 8]: 0.15

CN(Cc1cnc2nc(N)nc(N)c2n1)c1ccc(C(=O)N[C@@H](CCC(=O)O)C(=O)O)cc1 [Methotrexate]
Cholesterol-free media + simvastatin (0.04 μM) [1, 9]: 0.1275
Complete Media [1, 10]: 0.1078
Difference [1, 11]: −0.02
Difference [2, 12]: −0.13
Cholesterol-free [2, 13]: 0.225
Complete [2, 14]: 0.09944

CC(=O)OCC(=O)[C@@]12OC(C)(C)O[C@@H]1C[C@H]1[C@@H]3C[C@H](F)C4=CC(=O)C=C[C@]4(C)[C@@]3(F)[C@@H](O)C[C@@]12C [Fluocinonide]
Cholesterol-free media + simvastatin (0.04 μM) [1, 15]: 0.6998
Complete Media [1, 14]: 0.898
Difference [1, 16]: 0.20
Difference [2, 17]: −0.04
Cholesterol-free [2, 6]: 0.5848
Complete [2, 7]: 0.544

CCC(=O)O[C@H]1CC[C@H]2[C@@H]3CCC4=CC(=O)CC[C@]4(C)[C@H]3CC[C@]12C [Testosterone propionate]
Cholesterol-free media + simvastatin (0.04 μM) [1, 18]: 1.059
Complete Media [1, 19]: 0.7669
Difference ([1]; complete media vs cholesterol-free media + simvastatin (0.04 μM), […]): −0.29
Cholesterol-free [2, 20]: 1.308
Complete ([2]; NCI-H292 cells, complete media): 0.9212
Difference ([2]; complete vs cholesterol-free media, […]): −0.39

CC(Oc1c(Cl)cccc1Cl)C1=NCCN1 (centres unmarked) [Lofexidine]
Cholesterol-free media + simvastatin (0.04 μM) [1, 18]: 1.108
Complete Media [1, 19]: 0.8401
Difference [1, 5]: −0.27
Difference [2, 12]: −0.14
Cholesterol-free [2, 13]: 0.8805
Complete [2, 14]: 0.7367

CC(C)OC(=O)CNc1cccc(CN(Cc2ccc(-n3cccn3)cc2)S(=O)(=O)c2cccnc2)n1 [Omidenepag isopropyl]
Cholesterol-free media + simvastatin (0.04 μM) [1, 21]: 1.236
Complete Media [1, 22]: 1.286
Difference [1, 16]: 0.05
Difference [2, 23]: −0.75
Cholesterol-free [2, 24]: 1.563
Complete [2, 25]: 0.8153

CCCCCCNC(=O)n1cc(F)c(=O)[nH]c1=O [Carmofur]
Cholesterol-free media + simvastatin (0.04 μM) [1, 3]: 0.7692
Complete Media [1, 4]: 0.6005
Difference [1, 5]: −0.17
Cholesterol-free [2, 20]: 0.5487
Complete ([2]; NCI-H292 cells, complete media): 0.2009
Difference [2, 26]: −0.35

COCCOC(=O)C1=C(C)NC(C)=C(C(=O)OC/C=C/c2ccccc2)C1c1cccc([N+](=O)[O-])c1 (centres unmarked) [Cilnidipine]
Cholesterol-free media + simvastatin (0.04 μM) [1, 3]: 0.9073
Complete Media [1, 4]: 0.7251
Difference [1, 5]: −0.18
Cholesterol-free [2, 6]: 1.441
Complete [2, 7]: 1.574
Difference [2, 8]: 0.13

CC(C)C[C@H](NC(=O)[C@@H](O)[C@H](N)Cc1ccccc1)C(=O)O [Bestatin]
Cholesterol-free media + simvastatin (0.04 μM) [1, 18]: 1.263
Complete Media [1, 19]: 0.9917
Difference [1, 5]: −0.27
Cholesterol-free [2, 20]: 1.255
Complete ([2]; NCI-H292 cells, complete media): 0.8191
Difference [2, 26]: −0.44

NC(=O)CC[C@H](N)C(=O)O [L-Glutamine]
Cholesterol-free media + simvastatin (0.04 μM) [1, 9]: 0.8178
Complete Media [1, 10]: 0.7954
Difference [1, 11]: −0.02
Cholesterol-free [2, 6]: 1.026
Complete [2, 7]: 1.522
Difference [2, 8]: 0.50

CN1c2c(nc(N)[nH]c2=O)NC[C@@H]1CNc1ccc(C(=O)N[C@@H](CCC(=O)O)C(=O)O)cc1 [Levomefolic acid]
Cholesterol-free media + simvastatin (0.04 μM) [1, 9]: 0.9044
Complete Media [1, 10]: 0.8568
Difference [1, 11]: −0.05
Cholesterol-free [2, 20]: 1.808
Complete ([2]; NCI-H292 cells, complete media): 1.368
Difference [2, 26]: −0.44

CC(=O)OCC[N+](C)(C)C.[I-] [Acetylcholine (iodide)]
Cholesterol-free media + simvastatin (0.04 μM) [1, 3]: 1.762
Complete Media [1, 4]: 1.59
Difference [1, 5]: −0.17
Cholesterol-free [2, 20]: 1.351
Complete ([2]; NCI-H292 cells, complete media): 1
Difference [2, 26]: −0.35

CCOC(=O)[C@H](C)C[C@@H](Cc1ccc(-c2ccccc2)cc1)NC(=O)CCC(=O)O [Sacubitril hemicalcium salt]
Cholesterol-free media + simvastatin (0.04 μM) [1, 9]: 1.02
Complete Media [1, 10]: 1
Difference [1, 11]: −0.02
Cholesterol-free [2, 6]: 0.6536
Complete [2, 7]: 1.134
Difference [2, 8]: 0.48

Cc1c(C)c2c(c(C)c1O)CCC(C)(COc1ccc(CC3SC(=O)NC3=O)cc1)O2 (centres unmarked) [Troglitazone]
Cholesterol-free media + simvastatin (0.04 μM) [1, 15]: 0.9725
Complete Media [1, 14]: 0.8929
Difference [1, 5]: −0.08
Cholesterol-free [2, 6]: 0.7956
Complete [2, 7]: 1.359
Difference [2, 8]: 0.56

NC1=NCC2c3ccccc3Cc3ccccc3N12 (centres unmarked) [Epinastine (hydrochloride)]
Cholesterol-free media + simvastatin (0.04 μM) [1]: 1.515
Complete Media [1]: 1.132
Difference [1]: −0.38
Cholesterol-free [2]: 1.415
Complete [2]: 0.8806
Difference [2]: −0.53

C#C[C@]1(O)CC[C@H]2[C@@H]3CCc4cc(O)ccc4[C@H]3CC[C@@]21C [Ethynyl Estradiol]
Cholesterol-free media + simvastatin (0.04 μM) [1, 3]: 1.254
Complete Media [1, 4]: 1.055
Difference [1, 5]: −0.20
Cholesterol-free [2, 6]: 0.8735
Complete [2, 7]: 1.393
Difference [2, 8]: 0.52

Brc1c(NC2=NCCN2)ccc2nccnc12 [Brimonidine]
Cholesterol-free media + simvastatin (0.04 μM) [1, 3]: 0.9016
Complete Media [1, 4]: 0.7279
Difference [1, 5]: −0.17
Difference [2, 17]: −0.01
Cholesterol-free [2, 6]: 0.9724
Complete [2, 7]: 0.9659

NC(=O)N1c2ccccc2C[C@H](O)c2ccccc21 [Eslicarbazepine]
Cholesterol-free media + simvastatin (0.04 μM) [1, 3]: 1.137
Complete Media [1, 4]: 0.9164
Difference [1, 5]: −0.22
Difference [2, 17]: −0.02
Cholesterol-free [2, 6]: 0.8833
Complete [2, 7]: 0.8587

COc1ccc2cc3[n+](cc2c1OC)CCc1cc2c(cc1-3)OCO2.[Cl-] [Berberine (chloride)]
Cholesterol-free media + simvastatin (0.04 μM) [1, 21]: 0.3544
Complete Media [1, 22]: 0.3946
Difference [1, 16]: 0.04
Difference [2, 12]: −0.09
Cholesterol-free [2, 13]: 0.2752
Complete [2, 14]: 0.1873

O=C1Cc2cc(CCN3CCN(c4nsc5ccccc45)CC3)c(Cl)cc2N1 [Ziprasidone]
Cholesterol-free media + simvastatin (0.04 μM) [1, 21]: 0.9155
Complete Media [1, 22]: 0.9832
Difference [1, 16]: 0.07
Difference [2, 23]: −0.52
Cholesterol-free [2, 24]: 1.408
Complete [2, 25]: 0.89

Deferoxamine (mesylate)
Cholesterol-free media + simvastatin (0.04 μM) [1, 18]: 1.454
Difference [1, 5]: −0.43
Difference [2, 12]: −0.12
Cholesterol-free [2, 13]: 0.9976
Complete [2, 14]: 0.8739

Oc1c(Br)cc(Br)c2cccnc12 [Broxyquinoline]
Cholesterol-free media + simvastatin (0.04 μM) [1, 15]: 1.072
Complete Media [1, 14]: 1.219
Difference [1, 16]: 0.15
Cholesterol-free [2, 6]: 1.044
Complete [2, 7]: 1.24
Difference [2, 8]: 0.20

O=C(O)c1ccc2nc(-c3cc(Cl)cc(Cl)c3)oc2c1 [Tafamidis]
Cholesterol-free media + simvastatin (0.04 μM) [1, 18]: 1.307
Complete Media [1, 19]: 0.9388
Difference [1, 5]: −0.37
Cholesterol-free [2, 6]: 0.399
Complete [2, 7]: 0.8565
Difference [2, 8]: 0.46
